These are literature values, as cited in publication PMC3775475 (European journal of medicinal chemistry, 2013).

The data set concerns the target kappa-OR (UniProt P41145).

kappa-OR, sequence (P41145 whole entry): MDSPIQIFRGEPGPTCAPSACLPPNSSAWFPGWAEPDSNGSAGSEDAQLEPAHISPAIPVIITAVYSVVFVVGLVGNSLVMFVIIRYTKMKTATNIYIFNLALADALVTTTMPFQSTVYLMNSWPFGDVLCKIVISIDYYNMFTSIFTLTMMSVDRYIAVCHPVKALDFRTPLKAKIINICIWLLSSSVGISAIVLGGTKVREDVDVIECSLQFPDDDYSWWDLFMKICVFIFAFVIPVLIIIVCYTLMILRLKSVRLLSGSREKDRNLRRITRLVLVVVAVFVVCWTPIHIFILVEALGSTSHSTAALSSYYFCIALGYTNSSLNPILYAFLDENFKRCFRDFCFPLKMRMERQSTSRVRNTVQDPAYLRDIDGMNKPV

Regarding “ff(D-nle)r-NH2 (R1 f, R2 f, R3 nle, R4 r) [compound 1]”, the Ki is 1.2 nM.
`CC[C@@H](C)[C@@H](NC(=O)[C@@H](Cc1ccccc1)NC(=O)[C@H](N)Cc1ccccc1)C(=O)N[C@H](CCCNC(=N)N)C(N)=O` [compound 4]: the Ki was 2.4 nM.

For orientation: Ki means a measure of affinity in units of concentration, obtained from inhibition or displacement.
